Laboratory results from US20240124510A1, “Cyclic Glycoaminoacid Derivatives” (TFCHEM, priority 2021, published 2024).
Values joined by “and” are separate entries in the source; they are usually repeats but may differ in a detail not shown here. Equal entries are not always repeated.

Tests used:
[1] = tested on: SOD2 gene expression in aged human fibroblasts; test: SOD2 gene expression in aged human fibroblasts; assay type: cell-based; conditions: 6 mg/ml
Collagen I fibers = test: Quantity of Collagen 1 fibers produced by preadipocytes in inflammatory condition (immunofluorescence); assay type: cell-based, human; conditions: for Collagen I fibers quantity, Mean (%) / Collagen I fibers quantity, Values (%): inflammatory condition, normalized by cells number (Dapi); for Collagen I fibers quantity, Values (%): individual values; for Collagen I fibers quantity compared to the AcMC control condition fixed at 100%: preadipocytes
Procedure: Preadipocytes have been isolated from human female hypodermis (body mass index <30 kg/m2 and <45 years old). Preadipocytes have been cultured for 24 h in 100 μl of DMEM-10% Fetal Bovine Serum (FBS) in 96-well plates. Then cells were treated to induce their differentiation in a classical or an inflammatory environment for 13 days.
To induce the preadipocytes differentiation cells were incubated in a proadipogenic cocktail (PAC) including insulin, glucocorticoid, 3-isobutyl-1-methylxanthine (IBMX), and thiazolinedione in DMEM.
To induce a fibro-inflammatory environment, cells were treated with an activated human macrophage-conditioned medium (AcMC) prepared in RPMI medium. A treatment with Dexamethasone (DXM) at 100 nM was used as anti-inflammatory response control. At D0: preadipocytes have been treated in the following conditions: • “Undifferentiation”: DMEM+¼ RPMI medium • “Differentiation”: PAC+¼ RPMI medium • “AcMC” i.e. inflammatory condition: PAC+¼ AcMC • “AcMC+DXM”: PAC+[…] AcMC+anti-inflammatory DXM at 100 nM • “AcMc+compounds”: PAC+14 AcMC+compounds to be tested
One month after fixation of preadipocytes cultivated in pro-inflammatory environment, cells were incubated with 3% Bovine Serum Albumin (BSA) for 30 min in order to block the non-specific sites, then with primary antibody anti-collagen 1 (Novusbio, NB600-408) over-night. After washes with PBS, cells were incubated for 30 min with 3% BSA and then with the secondary antibodies (Goat anti-rabbit alexa-fluor 488, ThermoFisher, A11008) and DAPI (for nuclei staining) for 1 h. After several washes, the acquisition and the quantification were performed with a fluorescent video-microscope. Briefly, the quantification was based on the detection and quantification of cell nuclei stained with DAPI, and the detection of collagen 1 staining. Collagen 1 fibers were detected and measured for their length, thickness and intensity. A Collagen 1 fibers quantity was calculated (Quantity=length*thickness*fluorescence intensity) and normalized by cells number (DAPI staining).
Collagen I fibers (fibrillar collagen I) quantity was quantified and the data were normalized by cell number (DAPI staining, quantification of nuclei number). Data are represented in percentage of proinflammatory control conditions (AcMC condition).

[2] = tested on: Normal human epidermal keratinocytes (NHEK); test: Total lipid neosynthesis in NHEK ([14C]-acetate incorporation); assay type: cell-based; conditions: 48 hours; for [14C]-Acetate (cpm): individual replicates
Procedure: Normal human epidermal keratinocytes (NHEK) were seeded in 12-well plates and incubated in culture medium for 24 hours. The medium was then replaced by culture medium containing or not (control) the test compounds or the reference (CaCl2+Vitamin C at 1.5 mM+200 μg/ml respectively) in the presence of the radioactive tracer [^14C]-acetate. Cells were incubated for 48 hours. All experimental conditions were performed in triplicate.
Culture medium was Keratinocyte-SFM supplemented with Epidermal Growth Factor (EGF) 0.25 ng/ml, Pituitary extract (PE) 25 μg/ml and Gentamycin 25 μg/ml. The assay medium was Keratinocyte-SFM supplemented with Gentamycin 25 μg/ml.
At the end of incubation, cells were rinsed with PBS solution and then detached from their support by trypsin treatment. The [^14C]-acetate incorporation was then measured by liquid scintillation (measure of radioactivity). The incorporation is correlated with the total lipid neosynthesis. Results presented in Table 23 are expressed as cpm and % of control.

[3] = tested on: Normal human epidermal keratinocytes (NHEK); test: Lipid peroxidation in NHEK under UV stimulation (C11-fluor probe, flow cytometry); assay type: cell-based; conditions: for % Irradiated control (lipid peroxidation) / % Protection (lipid peroxidation) / C11-fluor 1/GMFI Mean (AU) / C11-fluor 1/GMFI (AU) / C11-fluor GMFI (AU): irradiated UVB 300 mJ/cm^2 (+UVA 2.1 J/cm^2); for C11-fluor 1/GMFI (AU) / C11-fluor GMFI (AU): individual replicates
Procedure: Normal human epidermal keratinocytes were seeded in 48-well plates and cultured in culture medium for 24 hours and then in assay medium for a further 24 hours. The medium was then removed and replaced by assay medium containing or not (irradiated control) the test compounds or the reference (BHA—butylated hydroxyanisole, lipid peroxidation inhibitor—at 100 μM) and the cells were pre-incubated for 24 hours. After pre-incubation, the specific fluorescent probe for the measurement of lipid peroxides (C11-fluor) was added and the cells were incubated for 45 minutes. Then, the medium was removed and replaced by assay medium containing or not (irradiated control and test compound conditions) the reference and the cells were irradiated with UVB (+UVA)−300 mJ/cm^2 (+2.1 J/cm^2). The lamp used was a SOL500 Sun Simulator equipped with an H2 filter (Dr. Hbnle. AG). After irradiation, the medium was removed and replaced by assay medium containing or not (irradiated control) the test compounds or the reference and the cells were incubated for 30 minutes before flow cytometry analysis. A non-irradiated control condition was performed in parallel. All experimental conditions were performed in triplicate.
At the end of the incubation, in each well, the cells were trypsinized and transferred into specific tubes for the analysis of C11-fluor fluorescence intensity using a BD FACSVerse™ flow cytometer (acquisition of 2000 to 5000 events per tube). The C11-fluor fluorescent probe is a lipid analogue which integrates cell membranes. As the fluorescence intensity of this probe is decreased with oxidation, it is inversely proportional to the lipid peroxidation. In order to facilitate the result interpretation, the lipid peroxidation was expressed using the value “1/fluorescence intensity” in order to have a direct proportionality between the induction of lipid peroxidation and the values of “% of irradiated control”.
Results presented in Table 24 are expressed as fluorescence intensity and as […] of protection compared to the control.

Q: What does the source list for N[C@H]1CCCN(CC(F)(F)[C@]2(O)O[C@H](CO)[C@H](O)[C@H](O)[C@H]2O)C1=O [Compound 6]?
A: increased SOD2 gene expression compared to the control [1]: 204%; Collagen I fibers quantity, Mean (%) (Collagen I fibers; 1 mg/ml): 154 % of AcMC condition; Collagen I fibers quantity, Values (%) (Collagen I fibers; 1 mg/ml): 136.7 % of AcMC condition and 160.5 % of AcMC condition and 165.3 % of AcMC condition; Collagen I fibers quantity, Mean (%) (Collagen I fibers; 2 mg/ml): 213 % of AcMC condition; Collagen I fibers quantity, Values (%) (Collagen I fibers; 2 mg/ml): 193.5 % of AcMC condition and 230.7 % of AcMC condition and 213.7 % of AcMC condition; Collagen I fibers quantity compared to the AcMC control condition fixed at 100% (Collagen I fibers; 1 mg/ml): 154%; Collagen I fibers quantity compared to the AcMC control condition fixed at 100% (Collagen I fibers; 2 mg/ml): 213%; % Control (total lipid neosynthesis) ([2]; 1 mg/ml): 110%; % Stimulation (total lipid neosynthesis) ([2]; 1 mg/ml): 10%; [14C]-Acetate Mean (cpm) ([2]; 1 mg/ml): 78584 cpm; [14C]-Acetate (cpm) ([2]; 1 mg/ml): 77267 cpm and 78905 cpm and 79581 cpm; % Control (total lipid neosynthesis) ([2]; 3 mg/ml): 121%; % Stimulation (total lipid neosynthesis) ([2]; 3 mg/ml): 21%; [14C]-Acetate Mean (cpm) ([2]; 3 mg/ml): 86022 cpm; [14C]-Acetate (cpm) ([2]; 3 mg/ml): 84794 cpm and 87349 cpm and 85922 cpm and 86860 cpm; Stimulation of lipid synthesis compared to the control ([2]; 1 mg/ml): 10%; Stimulation of lipid synthesis compared to the control ([2]; 3 mg/ml): 21%; % Irradiated control (lipid peroxidation) ([3]; 1 mg/ml): 66%; % Protection (lipid peroxidation) ([3]; 1 mg/ml): 37%; C11-fluor 1/GMFI Mean (AU) ([3]; 1 mg/ml): 5.6E−04 AU; C11-fluor 1/GMFI (AU) ([3]; 1 mg/ml): 4.7E−04 AU and 5.9E−04 AU and 6.2E−04 AU; C11-fluor GMFI (AU) ([3]; 1 mg/ml): 2118 AU and 1705 AU and 1608 AU; % Irradiated control (lipid peroxidation) ([3]; 3 mg/ml): 65%; % Protection (lipid peroxidation) ([3]; 3 mg/ml): 38%; C11-fluor 1/GMFI Mean (AU) ([3]; 3 mg/ml): 5.6E−04 AU; C11-fluor 1/GMFI (AU) ([3]; 3 mg/ml): 4.7E−04 AU and 5.1E−04 AU and 7.0E−04 AU; C11-fluor GMFI (AU) ([3]; 3 mg/ml): 2143 AU and 1970 AU and 1426 AU; Protection on lipid peroxidation (compared to the control) ([3]; NHEK irradiated with UVB (+UVA) 300 mJ/cm2 (+2.1 J/cm2), concentration not given): 38%
